Where no end group is shown, it is not given here.

Test [1] deals with Polα. To be noted: cited from earlier work. The source says: Because centromeres impose specific challenges for DNA replication machinery, we next sought to address the impact of ERCC6L2 deficiency on the progression of DNA replication. […] However, further analyses, based on EdU incorporation over longer time frames, highlighted differences between the two cell lines. Loss of ERCC6L2 reduced efficiency of EdU incorporation in unperturbed c ...

Test [2] has as its system His-tagged human PCNA. The test can be described thus: PCNA pull-down with biotinylated peptides. Format: binding. The following applies: biotinylated peptide on streptavidin beads; purified His-tagged PCNA, 1 h at 4°C; 50 mM Tris-HCl pH 8, 150 mM NaCl, 1 mM DTT, 0.2% Triton X-; anti-PCNA western blot. The text has this:
(§1) Figure 4 ERCC6L2 contains an atypical PCNA-binding motif (A) ERCC6L2 colocalizes with PCNA at CENP-C-negative foci. U2OS cells transfected with YFP-ERCC6L2 were stained for CENP-C and PCNA after pre-extraction of soluble proteins. ERCC6L2-and PCNA-positive, but CENP-C negative foci (red arrows) are marked in zoomed images. (B) ERCC6L2 colocalizes with RPA at CENP-C-negative foci. U2OS cells transfected with YFP-ERCC6L2 were stained for CENP-C and RPA. ERCC6L2- and RPA-positive, but CENP-C-negative foci (red arrows) are marked in zoomed images. (C) Colocalization of the C-terminal ERCC6L2^701−1561 fragment with endogenous PCNA. (D) PCNA pull-down with biotinylated peptides. Biotinylated PIP-box and APIM motif peptides were bound to streptavidin beads and incubated with recombinant PCNA. Interactions were assayed by western blotting with PCNA antibody. Wild-type ZRANB3 PIP-box peptide (ZRANB3 PIP) was used as a positive control. Mutant ZRANB3 PIP-box peptide (Q519A, F525A, and F526A, ZRANB3 PIP^∗) served as a negative control. […] Interactions were assessed by western blotting against PCNA (shown on the right). […]
Custom synthetic biotinylated peptides were synthetised by Genscript and dissolved in 50 mM Tris-HCl pH 8, 150 mM NaCl. […] Finally, the beads were boiled in the SDS-PAGE loading buffer, and analyzed by anti-PCNA Western blotting (1:1000 dilution).
(A western blot detects proteins with antibodies after separation by electrophoresis.)

Test [3] concerns endogenous PCNA. The test can be described thus: Colocalization of YFP-ERCC6L2 constructs with endogenous PCNA. The following applies: YFP-tagged, U2OS cells. Format: cell-based, human.
Excerpt: as §1
U2OS cells (ATCC) were grown in 24 well plates. […] Samples were analyzed by confocal microscopy using Olympus FV1200 or Zeiss 880 Airyscan microscopes, or using EVOS M7000 Imaging System. […]

Test [4] has as its system laser-induced DNA breaks. Nature of the test: Recruitment to laser-induced DNA breaks. Format: cell-based, human. The following applies: U2OS cells, 405 nm laser, 10 μM BrdU 16 h. The protocol: U2OS cells were grown in glass-bottomed 24 well plates and transfected with YFP-ERCC6L2 constructs using Lipofectamine 2000 (Life Technologies). Transfected cells were then incubated with 10 μM BrdU for 16 h at 37°C. Laser microirradiation was carried out on an Olympus FV1200 confocal microscope equipped with an environmental chamber. Localised DNA damage was induced in cells showing YFP-tagged protein expression using a 405 nm laser. Recruitment of the proteins was monitored by live cell imaging at 488 nm.

Test [5] deals with endogenous PCNA. The test can be described thus: Immunoprecipitation of Strep-tagged ERCC6L2 fragment, endogenous PCNA. It counts as binding, human. The following applies: 293T cells, Twin-Strep construct, StrepTactin beads, immunoblot.
Test [6] deals with His-tagged human PCNA. The test can be described thus: PCNA pull-down with GST-tagged fragment. Format: binding. The following applies: GST-tagged fragment on GST beads, 1 h at 4°C, 50 mM Tris-HCl pH 8, 150 mM NaCl, 1 mM DTT, 0.2% Triton X-, western blot.
The subject of test [7] is single-stranded DNA derived from α-satellite DNA sequence. Nature of the test: EMSA, single-stranded DNA. Format: binding. The following applies: His-tagged fragment; 2.5 nM labeled substrate; 30 min, room temperature; 50 mM Tris-HCl pH 7.5; 11, 22, 44, 88, 176 nM (legend Figure 1H).
The subject of test [8] is double-stranded DNA derived from α-satellite DNA sequence. Nature of the test: EMSA, double-stranded DNA. Format: binding. To be noted: His-tagged fragment; 2.5 nM labeled substrate; 30 min, room temperature; 50 mM Tris-HCl pH 7.5; 11, 22, 44, 88, 176 nM (legend Figure 1H).

Turning to `O=C(O)c1ccc2cc(-c3ccc(O)c(C45CC6CC(CC(C6)C4)C5)c3)ccc2c1` [CD437], in test [1], the “uncoupling of DNA synthesis” value is “causes uncoupling of leading and lagging strand DNA synthesis”.

As for “ERCC6L2^790−811 peptide: atypical ERCC6L2 peptides (residues 790–811) containing the WT sequence (LLQCGFSKLLETKCKAVEDSDG; cysteine pairing not given here; also: biotinylated, position not given here; UniProt Q5T890 790-811, looked up, fragment)”, in test [2], the “interaction with PCNA, pull-down” value is “comparable to the one observed with the classical PIP-box peptide from ZRANB3”.

With “full-length ERCC6L2: full-length human ERCC6L2, YFP-tagged”, the “colocalization with endogenous PCNA” value in test [3] is reported as “largely absent from PCNA foci in S-phase cells”. Besides, the “mobilization to laser-induced DNA breaks” value in test [4] is “efficient mobilization”.

B1: ERCC6L2^701−1053: Strep-tagged ERCC6L2 fragment (protein)
chain: QGSCLTKDILEREGQVEAGIMTATTWLKEGPPAHKLEMPRQPDCQECRGTEQAAEPLAKEACDLCSDFSDEEPVGATGIKTAKNKAPDSSKASSSPGQLTLLQCGFSKLLETKCKAVEDSDGNTASDDESSDEQPTCLSTEAKDAGCEKNQDSLGTSKHQKLDNILNPKEKHIFYKSEKILEQNISSKSDEKKIKNTDKHCILQNVTESEDSDVICPTQYTTERFPDNSIRFKPPLEGSEDSETEHTVKTRNNDNSRNTDDKRNGIISKKLSPENTTLKSILKRKGTSDISDESDDIEISSKSRVRKRASSLRFKRIKETKKELHNSPKTMNKTNQVYAANEDHNSQFIDDYS
modifications: left off: Strep tag, end not stated, kept
notes: Strep-tagged ERCC6L2 fragment
With B1, the “endogenous PCNA in immunocomplexes” value in test [5] is “detected”.

B2: GST-tagged ERCC6L2^753−819: GST-tagged ERCC6L2 fragment (residues 753–819) expressed in E. coli (protein)
chain: AAEPLAKEACDLCSDFSDEEPVGATGIKTAKNKAPDSSKASSSPGQLTLLQCGFSKLLETKCKAVED
modifications: left off: GST, end not stated, kept
notes: GST-tagged ERCC6L2 fragment (residues 753–819) expressed in E. coli
As for B2, the “interaction with PCNA, GST pull-down” value in test [6] is “The interaction with PCNA could be demonstrated”.

B3: ERCC6L2^1053−1247: purified His-tagged ERCC6L2 fragment containing the VIGS motif (protein, UniProt Q5T890 1053-1247, looked up, fragment)
chain: FSFSKQSHRPRTIRDRTSFSSKLPSHNKKNSTFIPRKPMKCSNEKVVNQEQSYESMDKFLDGVQEVAYIHSNQNVIGSSKAENHMSRWAAHDVFELKQFSQLPANIAVCSSKTYKEKVDADTLPHTKKGQQPSEGSISLPLYISNPVNQKKKKVYHTNQTTFIIGETPKGIRRKQFEEMASYFNSSSVNEFAKHI
modifications: His tag
notes: purified His-tagged ERCC6L2 fragment containing the VIGS motif
For B3, the “formation of nucleoprotein complexes with single-stranded DNA (EMSA)” value in test [7] is on record as “formed stable nucleoprotein complexes”. Also, the “formation of nucleoprotein complexes with double-stranded DNA (EMSA)” value in test [8] is listed as “formed stable nucleoprotein complexes”.

The record behind these values is PMC12003248, “ERCC6L2 mitigates replication stress and promotes centromere stability” (Cell Reports, 2023).
